Experimental data published in patent publication US6569846B1, “Palladium-substituted bacteriochlorophyll derivatives and use thereof” (Yeda Research and Development Co. Ltd., priority 1998, dated 2003).

Key:
[1] = test system: HDL, LDL, Albumin fractions of human serum; assay: Plasma lipoprotein binding (density-gradient centrifugation); type: in vitro ADME; settings: 3 μM, 30 min at 37° C.
Experimental: (iv) Lipoprotein binding: Binding of Pd-BPheid to protein and lipoprotein compound of control human plasma was determined. Incubation of 250 μl plasma sample with 3 μM of the compound for 30 min at 37° C. Lipoprotein and protein components were then separated by density-gradient centrifugator. The gradients were fractionated, fractions diluted into 3 ml of 10 mM Triton X-100 detergent or of fluorescence at 750-800 nm determined upon excitation at 400 nm.

[2] = test system: HT29 human colon adenocarcinoma; assay: In vivo phototoxicity on grafted HT29 tumors (tumoral index); set-up: species or system Swiss nude mice; settings: for tumor growth as compared to controls / duration of decrease of tumor index: 15 mg/kg i.v., 763 nm
Experimental: Animal and tumor model: Solid tumor tissue (diameter 2 cm) removed from donor mouse immediately after death was mechanically crushed in 1 ml of 0.9% saline solution and the solution (0.1 ml) was injected s.c. into one hind leg of each mouse. Mice were included for experiments when the tumor diameter was 8-10 mm. Tumors were grafted s.c. in 8-week aged Swiss nude mice 10 days before experiment.
Phototoxic studies: 0.15 ml Pd-BPheid was injected i.v. at 15 mg/kg. Mice were anesthetized with thiopental at 40 mg/kg just before irradiation. At 30 min, 1 h, 4 h or 24 h after injection, mice were irradiated with a titanium sapphire laser at 300 mW/cm^2, mean diameter were measured to adjust time irradiation to obtain 200 or 300 J/cm^2. Control mice not injected with Pd-BPheid were also irradiated in same conditions. The tumor growth delay induced by PDT was analyzed by equivalence with tests realized in experimental radiotherapy. For in vivo studies and for each separate experiment, all results were the mean of 2 or 3 separate experiments and for each separate experiment, 2 mice were used for each experimental condition.
Concerning tumoral growth studies, results are expressed as tumoral index variations with reference (=1) corresponding to tumoral index from non-treated cells. The tumoral index was calculated as follows:
Tumoral index=(largest tumoral diameter+perpendicularly opposite diameter)/2.

M2R mouse melanoma cells = assay: Phototoxicity on M2R cells (Example 11, [3H]-thymidine incorporation); type: cell-based
Experimental: For phototoxicity analysis cells (1×10^4 cells/well) were cultured in 96-well plates for 24 hours to an approximate density of 2×10^4 cells/well. Pigments were dissolved directly in culture medium or in ethanol 95% and further diluted in culture medium to a final concentration of 1% ethanol. The diluted pigments were added and the cells were incubated in the dark for four hours at 37° C. Prior to illumination, the cells were washed once and replaced with fresh culture medium. The plates were then illuminated from the bottom for 10 minutes at room temperature and placed in the culture incubator at 37° C. in the dark. Cell survival was determined 24 hours later. The following control systems were used: Dark control—untreated cells kept in the dark; Light control—cells not treated with sensitizer that were illuminated; Dark toxicity—cells treated with pigment but kept in the dark. Cell survival was determined by [^3H]-thymidine incorporation as described earlier (WO 97/19081). […]
(iii) Phototoxicity study: Analysis was performed with the same protocol as described above (Example 10) with the following changes: Pd-BPheid was dissolved directly in medium containing 10% serum and then added to the cells. Survival of M2R cells was determined by [^3H]-thymidine incorporation and that of human HT29 cells with the MTT assay (Merlin J L et al., 1992 Eur. J. Cancer 28A: 1452-1458).

SMILES: CC[C@H]1C2=NC(=Cc3c(C(C)=O)c(C)c4[n]3[Pd][n]3c(c(C)c5c3=C(C3=NC(=C4)[C@@H](C)[C@@H]3CCC(=O)O)[C@@H](C(=O)OC)C5=O)=C2)[C@@H]1C [Pd-BPheid, Pd-bacteriopheophorbide a]
- plasma lipoprotein binding, rank order of fractions [1]: HDL>LDL>>>Albumin
- tumor growth as compared to controls ([2]; 200 J/cm^2, 30 min and 4 h after injection): tumor growth decrease
- duration of decrease of tumor index ([2]; 200 J/cm^2, 1 h and 24 h after injection): up to 7 days
- tumor growth as compared to controls ([2]; 300 J/cm^2, 30 min and 24 h after injection): tumor growth decrease
- duration of decrease of tumor index ([2]; 300 J/cm^2, 1 h and 4 h after injection): up to 7 days
- wavelength of maximum tumor growth decrease ([2]; 300 J/cm^2, 1 h after injection): 763 nm
- duration of tumor growth decrease as compared to controls ([2]; 300 J/cm^2, 1 h after injection, 753 nm and 763 nm): up to 12 days
- duration of tumor growth decrease as compared to controls ([2]; 300 J/cm^2, 1 h after injection, 773 nm): up to 5 days
- wavelength of maximum tumor growth decrease ([2]; 300 J/cm^2, 24 h after injection): 773 nm
- duration of tumor growth decrease as compared to controls ([2]; 300 J/cm^2, 24 h after injection, 753 nm): up to 4 days
- duration of tumor growth decrease as compared to controls ([2]; 300 J/cm^2, 24 h after injection, 763 nm and 773 nm): up to 12 days
- most efficient delay between injection and illumination ([2]; 773 nm wavelength): 24 h
- most efficient delay between injection and illumination ([2]; at 764 nm): one hour
- optimal wavelength of irradiation ([2]; summary of the study): 773 nm
- sensitivity of M2R cells relative to HT-29 cells (M2R mouse melanoma cells): about 10 times
